The values that follow come from patent US20050256179A1, “Selective pharmacologic inhibition of protein trafficking and related methods of treating human diseases” (priority 2003, published 2005).

One assay deals with Rab6. The assay is described as follows: Rab6 expression. In kind it is cell-based.
A further assay concerns B16-F10 cells. The assay is described as follows: PowerBlot screen of expression of over 950 proteins. In kind it is cell-based, mouse. Particulars: 100 ng/ml, 16 hr. The method, then: A second series of experiments tested the activity of AVP 893 on the expression of over 950 proteins by Western blotting in vitro (in triplicate); methods detailed below. B16 tumor cells were chosen for this screen and a 16 hour duration of AVP 893 treatment was selected to optimize the number of proteins that might be modified by drug. […] B16-F10 cells were cultured for 16 hr in the presence or absence of 100 ng/ml AVP 893. Samples were harvested and lysates prepared according to instructions supplied by Becton-Dickinson. Samples were placed on dry ice and submitted to the same for expression analysis of 950 proteins. […] Although both proteins have entirely different functions in the cell, and have not been linked (apparently) in the scientific literature, there is a rational explanation for the changes noted in each protein, as described below.

For another assay, the system named is Rab1a. The assay is described as follows: Rab1a expression by Western blotting. Format: cell-based. Particulars: 3T3 cells. The method, then: Protein samples (in sample buffer) were boiled for 1-3 minutes and put on ice. Same amount of protein were loaded on the NuPage gel (InVitrogen). After the electrophoresis was complete, proteins were transferred from the gel to a PVDF membrane using the electro-blotting apparatus from InVitrogen; the voltage was set to 25 for 2-3 hr. Block non-specific binding by incubating membrane with 5% milk (in PBS, 0.1% tween 20) for at least 30 min at room temperature or overnight at 4° C. The blocked membrane was incubated with primary antibody (See TABLE 2) diluted in 5% milk for 1 hour at room temperature. Optimal antibody dilution depends on the company, the amount of protein. Dilutions of 1:1000 were generally used for the primary antibodies from Santa Cruz. The membrane was washed with PBS, 0.1% tween 3-4 times 5 mins. The membrane was incubated for 30-60 minutes at room temperature with horseradish peroxidase (HRP) conjugated secondary antibody diluted in 5% milk. We usually used 1:4000 dilution for the secondary antibody from Santa Cruz. The membrane was washed 3-4 times with PBS, 0.1% tween, each time 15 minutes. The detection solutions A and B were mixed in a ratio 40:1 and Pipetted onto the membrane, and incubated for 5 min at RT. A sheet of Hyper film ECL was placed on the top of the membrane in the dark and exposed for 1 min, or adjust accordingly. […]
A general note: In western blotting, separated proteins are transferred to a membrane and probed.

The subject of a further assay is nicastrin. The assay is described as follows: Nicastrin expression/maturation by Western blotting. In kind it is cell-based. On the procedure:
(§1) The culture medium was removed by vacuuming (for attached cells) or by low speed centrifugation (for suspension cells) for 5-7 minutes at room temperature. The cells were wasedh twith PBS, spun at 1200 rpm and the cell pellets were kept on ice. 300 μl/2.0×10^7 cells of ice cold lysis buffer was added with freshly added protease inhibitors. Cell pellets were gently resuspended and incubated on ice for at least 30 min, vortexed a few times during incubation. Cell lysate was spun at 14,000 rpm for 2-5 min at 4° C. The supernatant was transferred to a new microfuge tube and the pellet was discarded. An aliquot of sample was mixed with an equal volume of 2× sample buffer (InVitrogen), and stored at −80° C. Protein concentration was determined by using “BCA protein assay reagent kit” from Pierce.
Protein samples (in sample buffer) were boiled for 1-3 minutes and put on ice. Same amount of protein were loaded on the NuPage gel (InVitrogen). […]
To further examine the putative protein trafficking effects of AVP 893, other proteins in this pathway were tested in vitro in B16 and other cell lines. […] Other cell lines were tested for their expression of GS28 and nicastrin and found to respond similarly to drug, although quantitative differences were evident. […]

For the next assay, the system named is GS28. The assay is described as follows: GS28 expression by Western blotting. Particulars: for GS28 expression: 100 ng/ml. Format: cell-based. On the procedure:
as §1
Protein samples (in sample buffer) were boiled for 1-3 minutes and put on ice. Same amount of protein were loaded on the NuPage gel (InVitrogen). After the electrophoresis was complete, proteins were transferred from the gel to a PVDF membrane using the electro-blotting apparatus from InVitrogen; the voltage was set to 25 for 2-3 hr. Block non-specific binding by incubating membrane with 5% milk (in PBS, 0.1% tween 20) for at least 30 min at room temperature or overnight at 4° C. The blocked membrane was incubated with primary antibody (See TABLE 2) diluted in 5% milk for 1 hour at room temperature. Optimal antibody dilution depends on the company, the amount of protein. Dilutions of 1:1000 were generally used for the primary antibodies from Santa Cruz. The membrane was washed with PBS, 0.1% tween 3-4 times 5 mins. The membrane was incubated for 30-60 minutes at room temperature with horseradish peroxidase (HRP) conjugated secondary antibody diluted in 5% milk. We usually used 1:4000 dilution for the secondary antibody from Santa Cruz. The membrane was washed 3-4 times with PBS, 0.1% tween, each time 15 minutes. The detection solutions A and B were mixed in a ratio 40:1 and Pipetted onto the membrane, and incubated for 5 min at RT. A sheet of Hyper film ECL was placed on the top of the membrane in the dark and exposed for 1 min, or adjust accordingly.
To further examine the putative protein trafficking effects of AVP 893, other proteins in this pathway were tested in vitro in B16 and other cell lines. The effect of AVP 893 on cellular proteins was corroborated in B16 cells and extended to include a time-course (FIG. 17). B16-F10 tumor cells were seeded in T75 flasks at 20% confluence and cultured overnight. AVP 893 (100 ng/ml) was added to several flasks and one flask of cells was harvested at several time points following addition of compound. Lysates were prepared, separated by electrophoresis, and probed with antibody as described above in the general Western blotting protocol. Drug effects on GS28 and nicastrin paralleled each other and were progressively stronger with longer drug incubations. […] Other cell lines were tested for their expression of GS28 and nicastrin and found to respond similarly to drug, although quantitative differences were evident. Tumor cell lines found to respond similarly to AVP 893 include CAK1, SF295, PC3, MOLT4, Neuro2a, and RBL (FIGS. 18, 19, and 20). For the experiment shown in FIG. 18, LOX, CAKI, and 3T3 cell lines were treated as described for FIG. 17. For the results shown in FIG. 19, SF295, PC3, MOLT-4, and Neuro2a cells were treated as described for FIG. 17. For the results shown in FIG. 20, LOX, 3T3, and RBL cell lines were treated with varying concentrations of AVP 893 as described for FIG. 17. The effects on LOX cells were less evident. […] Levels of calnexin, a resident ER protein used as a control, were unchanged in drug-treated cells.

In another assay the test system is GM-130. The assay is described as follows: GM-130 expression. In kind it is cell-based. Particulars: data not shown. The text has this: Likewise, the non-resident golgi protein Rab6 appeared to be unaffected in some cell types, as illustrated in FIG. 31.
For a further assay, the system named is Mannosidase II. The assay is described as follows: Mannosidase II immunocytochemistry. Format: cell-based. The method, then:
GS15, GS28, GPP130, and Mannosidase II, sparing the golgi structural protein GM-130 and having little effect on the Rab GTPase Rab6. Furthermore, these affects were most pronounced following overnight (16-20 hr) incubations with AVP 893, although some affects at early time points were seen. These conclusions were drawn from the western blot analysis (FIG. 29), as well as from the immunocytochemical studies (FIGS. 30-31).
Additional evidence that AVP 893 has unique activity against resident golgi proteins (e.g. Mannosidase II), was found using both shorter durations of drug exposure and immunocytochemistry instead of western blot analysis (FIG. 43).

Consider `O=C(Nc1ccc(-c2nc3cc(NC(=O)C4CCCCC4)ccc3[nH]2)cc1)C1CCCCC1` [AVP 893], for which the Rab6 expression result with Rab6 (3T3 and PMA/ionomycin-stimulated spleen cells, overnight) is “suppressed Rab6 expression”. The Rab6 staining result in the assay on Rab6 (immunocytochemistry, even after 18 hrs) was “not diminished nor significantly altered”. Further, the “number of proteins consistently and significantly modified of over 950” value with B16-F10 cells came out at 6. For the same molecule, in the assay with Rab1a, the Rab1a expression result is “mild response”. The “IC50 for mature nicastrin expression” value in the assay with nicastrin (3T3 cells, overnight) was 10 and 100 ng/ml. The “levels of mature nicastrin” value with nicastrin (3T3 fibroblast cell line) is “virtually eliminated”. Moreover, the “expression of GS28 and GS15 compared with monensin, Brefeldin A, rapamycin” value in the assay on GS28 (3T3 cells, 200 ng/ml, 18 hour) was “decreased the expression of GS28 and GS15 more markedly than the other three agents”. Further, in the assay on GS28 (3T3 cells, overnight), the “IC50 for GS28 expression” value is 10 and 100 ng/ml. For the same molecule, the “levels of GS28” value with GS28 (3T3 fibroblast cell line) is “virtually eliminated”. The GS28 expression result in the assay on GS28 (B16 cells, two days of culture) is recorded as “complete loss of GS28”; with GS28 (stimulated BALB/c spleen cells, 20 hours), “abrogated”. In addition, the “GS28 or nicastrin expression” value with GS28 (resistant line H-460, overnight) is given as “little effect”. Moreover, the GM-130 expression result with GM-130 is recorded as “did not appear to be affected”. Further, in the assay on Mannosidase II (1 hr of treatment, immunocytochemistry), the “Mannosidase II staining pattern” value is reported as “no apparent effect”. Besides, in the assay on Mannosidase II (after 4 hrs of application), the “Mannosidase II in golgi” value is recorded as “little to no discernible amount of the enzyme remaining after 4 hrs”.
